Values of other authors as cited in patent US20130171256A1 (CIMA LABS Inc., priority 2010, published 2013).

Tests used:
Details in all cases: preclinical studies
[1] = system: neuronal norepinephrine reuptake
dopamine reuptake = system: dopamine reuptake
[2] = system: neuronal serotonin reuptake

Structure (SMILES)	inhibition of neuronal norepinephrine reuptake [1]	inhibition of dopamine reuptake (dopamine reuptake)	inhibition of neuronal serotonin reuptake [2]
COc1ccc(C(CN(C)C)C2(O)CCCCC2)cc1 (centres unmarked) [Venlafaxine]	potent inhibitors	weak inhibitors	
CN(C)CC(c1ccc(O)cc1)C1(O)CCCCC1 (centres unmarked) [O-desmethylvenlafaxine]	potent inhibitors	weak inhibitors	potent inhibitors
